Reference: PMC12770330 (Scientific Reports, 2025)

How the values were obtained:
α-glucosidase [1] = assay: α-glucosidase inhibitory assay; assay type: biochemical, Saccharomyces cerevisiae
α-glucosidase [2] = assay: in vitro kinetic analysis of α-glucosidase inhibition; assay type: biochemical, Saccharomyces cerevisiae

| Compound | α-glucosidase inhibitory activity (in words) (α-glucosidase [1]) | mode of inhibition (α-glucosidase [2]; Km increases, Vmax unchanged) | Ki (α-glucosidase [2]; inhibitor 5.00, 10.00, 20.00 µM, substrate 4-nitrophenyl α-D-glucopyranoside) [µM] |
| --- | --- | --- | --- |
| CCNC(=S)NC1c2ccccc2CC1O (stereo not drawn) [Compound 2d, 1-ethyl-3-(2-hydroxy-2,3-dihydro-1H-inden-1-yl) thiourea] | inactive | – | – |
| COc1ccc(NC(=S)NC2c3ccccc3CC2O)cc1 (stereo not drawn) [Compound 2h, 1-(2-hydroxy-2,3-dihydro-1 H-inden-1-yl)-3-(4-methoxyphenyl) thiourea] | – | competitive | 7.39 ± 0.088 |
